Test results: patent US20230330254A1 (Regeneron Pharmaceuticals, Inc., priority 2022, published 2023)
Like-named read-outs stand apart in the source and are kept apart here. *1 amine or outer side, *2 acyl side, *3 side chain or, on linkers, in order; H or OH if unused. Where a SMILES comes first, the peptide text is derived from it. [ ]: non-standard residue; d: D form. The star is where a group is joined. Bip(2'-Et-4'-O(CH2)4NH2) = CCc1cc(OCCCCN[*:3])ccc1-c1ccc(C[C@H](N[*:1])C(=O)[*:2])cc1; Bip(2'-Et,4'-O(CH2)4NH2) = CCc1cc(OCCCCN)ccc1-c1ccc(C[C@H](N)C(=O)O)cc1; X10 = O=C(NCCOCCOCCOCCOC(=O)*)OC[C@@H]1[C@@H]2CCc3[nH]nnc3CC[C@@H]21; Malonyl(2,2-Me2,histaminyl) = CC(C)(C(=O)NCCc1cnc[nH]1)C(=O)*; Nva(5-(3,5-Me2Ph)) = Cc1cc(C)cc(CCC[C@H](N)C(=O)O)c1; Ala(1H-tetrazol-5-yl) = N[C@@H](Cc1nnn[nH]1)C(=O)O; αMePhe(2-F) = C[C@](N)(Cc1ccccc1F)C(=O)O; Desaminohistidyl = O=C(CCc1c[nH]cn1)*

How the values were obtained:
[1] = Plasma stability of payloads and linker-payloads, human plasma; type: in vitro ADME; conditions: plasma, 2 μM, 37° C., read-out: Human plasma stability assay T½ (converted)
Experimental: The plasma stability of payloads and linker payloads of the disclosure were measured. For the assay, pooled frozen plasma (human, mouse or monkey) was thawed in cold water or a 37° C. water bath prior to experiment. Plasma was centrifuged at 4000 rpm for 5 min if any clots were observed, they were subsequently removed. If required, the pH was adjusted to 7.4±0.1. For the preparation of compounds and positive controls, a 1 mM intermediate solution was prepared by diluting 10 μL of their stock solution with 90 μL DMSO; a 1 mM intermediate solution of the positive control (Propantheline) was prepared by diluting 10 μL of its stock solution with 90 μL ultrapure water. […] 98 μL of plasma was spiked with 2 μL of dosing solution (100 μM) to achieve the final concentration of 2 μM in duplicate. Samples were then incubated at 37° C. in a water bath. […] At each time point, 400 μL of stop solution (200 ng/mL tolbutamide plus 200 ng/mL labetalol in 50% ACN/MeOH) was added to precipitate protein and mixed thoroughly. Sample plates were then centrifuged at 4,000 rpm for 10 min. An aliquot of supernatant (50 μL) was transferred from each well and mixed with 100 μL ultrapure water. The samples were then shaken at 800 rpm for approximately 10 min before submitting for LC-MS/MS analysis.

HEK293/CRE-Luc cells [2] = assay: Luciferase reporter assay, HEK293/CRE-Luc cells without hGLP1R (Example 11); type: cell-based, human; conditions: Experiment A; for EC50 / HEK293/CRE-LUC S/N: Table 11, no hGLP1R expression
Source text: (§1) To test the activity of GLP1R agonist payloads, GLP1R agonist linker-payloads (LPs), and anti-GLP1R antibody tethered drug conjugates (ATDCs) of the disclosure, a cell-based cAMP responsive luciferase reporter assay was developed. To generate the assay cell line, the firefly luciferase gene was placed under the control of a cAMP response element (CRE) located upstream of a minimal promoter and transfected into HEK293 cells and referred to herein as HEK293/CRE-Luc cells.
(§2) Three-fold serial dilutions of free payloads or LPs were prepared in 100% DMSO, transferred to fresh assay media, and added to the cells at a final constant DMSO concentration of 0.2%. The last well in the plate served as a blank control containing only the assay media and 0.2% DMSO (untreated well) and was plotted as a continuation of the 3-fold serial dilution. Four to six hours later, luciferase activity was determined after the addition of One-Glo™ reagent (Promega, Cat #E6130) to each well. Relative light units (RLUs) were measured on an Envision luminometer (PerkinElmer) and EC50 values were determined using a four-parameter logistic equation over a 12-point dose response curve (GraphPad Prism). The signal to noise (S/N) was determined by taking the ratio of the highest RLU on the dose response curve to the RLU in the untreated wells.

human GLP1R [3] = target: T1, human GLP1R (Homo sapiens, UniProt P43220); assay: Luciferase reporter assay, HEK293/CRE-Luc/hGLP1R cells (Example 11); type: cell-based; set-up: engineered to express full-length human GLP1R, cynomolgus GLP1R; expressed in transfected cells; host or cells: HEK293/CRE-Luc; conditions: Table 11; Experiment A
T1 sequence (P43220 24-463): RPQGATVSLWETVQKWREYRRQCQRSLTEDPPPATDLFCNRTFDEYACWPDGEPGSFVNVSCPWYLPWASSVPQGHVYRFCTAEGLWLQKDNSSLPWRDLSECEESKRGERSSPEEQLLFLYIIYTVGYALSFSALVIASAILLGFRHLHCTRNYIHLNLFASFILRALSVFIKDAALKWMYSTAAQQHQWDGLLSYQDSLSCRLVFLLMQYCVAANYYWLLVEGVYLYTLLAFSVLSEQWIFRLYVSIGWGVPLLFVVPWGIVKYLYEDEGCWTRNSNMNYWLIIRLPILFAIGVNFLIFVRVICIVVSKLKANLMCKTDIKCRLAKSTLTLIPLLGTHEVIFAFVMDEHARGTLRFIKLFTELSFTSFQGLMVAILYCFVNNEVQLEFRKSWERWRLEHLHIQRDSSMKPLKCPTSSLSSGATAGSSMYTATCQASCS
Source text: as §1, §2
GLP1R agonist linker payloads were conjugated to anti-hGLP1R antibodies via N-terminal heavy or light chain Q tags. Several resulting anti-GLP1R antibody tethered drug conjugates (ATDCs) were tested for activity in the HEK293/CRE-Luc/hGLP1R reporter assay as described above for the free GLP1R payload and linker-payload agonists.

human GLP1R [4] = target: T1, human GLP1R; assay: Luciferase reporter assay, HEK293/CRE-Luc/hGLP1R (Example 17); type: cell-based; set-up: engineered to express full-length human GLP1R, cynomolgus GLP1R; expressed in transfected cells; host or cells: HEK293/CRE-Luc; conditions: HEK293/CRE-Luc/hGLP1R; for S/N: highest RLU / RLU of untreated wells; for Relative Potency (% M2361 EC50) / Relative Signal:Noise (% M2361): relative to M2361 of the same experiment; for EC50: payloads and linker-payloads, experiments A-E, M2361 repeated in each, read-out: EC50
Outline: (§3)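 HEK293 cells carrying a CRE-driven firefly luciferase reporter were exposed to 3-fold serial dilutions of payloads or linker-payloads (12 points, 0.2% DMSO final) for 4–6 h, then luminescence was read. EC50 came from a four-parameter logistic fit; S/N is top RLU over untreated wells, and relative potency and S/N are referenced to M2361.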

HEK293/CRE-Luc cells [5] = assay: Luciferase reporter assay, HEK293/CRE-Luc cells without GLP1R (Example 17); type: cell-based, human; conditions: HEK293/CRE-Luc cells without hGLP1R; for EC50: read-out: EC50
Outline: as §3

human GLP1R [6] = target: T1, human GLP1R; assay: Human GLP1R cAMP accumulation assay; type: cell-based; set-up: HEK293 cells over-expressing full length human GLP-1R were utilized; expressed in transfected cells; host or cells: HEK293 (HEK293/hGLP1R); conditions: HEK293/hGLP1R cells; Table 4; read-out: cAMP EC50
Experimental: 8.1 Human GLP1R cAMP Accumulation Assay (Cyclic AMP Determination)
The functional activity of the test compounds for agonizing GLP1R were evaluated using a cell-based assay. For the assay, HEK293 cells over-expressing full length human GLP-1R were utilized and the downstream cAMP accumulation was assessed as a measure of human GLP-1R stimulation. […] Diluted compounds were transferred to OptiPlates (100 nL/well) using an Echo liquid handler. HEK293/hGLP1R cells were thawed in 37° C. water-bath, washed 2 times with HBSS and re-suspended in assay buffer (HBSS+5 mM HEPES+500 μM IBMX+0.1% BSA). […] After centrifugation, the assay plate was incubated at 23° C. for 30 min. The reaction was terminated by adding 10 μL of lysis buffer containing D2-cAMP and a cAMP-antibody from the cyclic AMP immunoassay kit (Cisbio, Cat #62AM4PEJ). […] The levels of cAMP per well were calculated using a standard curve generated by GraphPad Prism. Percent activity was calculated according to the formula (% Activity=100%*(cAMP level-LC)/(HC-LC)). EC50 values were fitted from a four-parameter logistic equation over a 10-point response curve (GraphPad Prism).

Compound | HEK293/CRE-LUC S/N (HEK293/CRE-Luc cells [2]) | S/N (human GLP1R [4]) | Relative Potency (% M2361 EC50) (human GLP1R [4]) [%] | Relative Signal:Noise (% M2361) (human GLP1R [4]) [%] | S/N (HEK293/CRE-Luc cells [5]; payloads and linker-payloads) | EC50 (HEK293/CRE-Luc cells [5]; payloads and linker-payloads) [nM] | EC50 (human GLP1R [6]) [nM] | other results
CCc1cc(OCCCCNC(=O)OCCOCCOCCOCCNC(=O)OC[C@@H]2[C@@H]3CCc4[nH]nnc4CC[C@@H]32)ccc1-c1ccc(C[C@H](NC(=O)[C@H](CC(=O)O)NC(=O)[C@H](CO)NC(=O)[C@@H](NC(=O)[C@](C)(Cc2ccccc2F)NC(=O)[C@@H](NC(=O)CNC(=O)[C@H](Cc2nn[nH]n2)NC(=O)C(C)(C)C(=O)NCCc2cnc[nH]2)[C@@H](C)O)[C@@H](C)O)C(=O)N[C@@H](CCCc2cc(C)cc(C)c2)C(N)=O)cc1 [LP25, triazole-BCN-PEG4-carba-mate-P9] ({Malonyl(2,2-Me2,histaminyl)}-[Ala(1H-tetrazol-5-yl)]GT[αMePhe(2-F)]TSD[Bip(2'-Et-4'-O(CH2)4NH2)](X10)[Nva(5-(3,5-Me2Ph))]-NH2) |  |  |  |  |  |  |  | half-life at 2 µM ([1]; pH 7.4, tested time D (7 days)): 11.9 days
CCc1cc(OCCCCN)ccc1-c1ccc(C[C@H](NC(=O)[C@H](CC(=O)O)NC(=O)[C@H](CO)NC(=O)[C@@H](NC(=O)[C@](C)(Cc2ccccc2F)NC(=O)[C@@H](NC(=O)CNC(=O)[C@H](Cc2nn[nH]n2)NC(=O)CNC(=O)CCc2cnc[nH]2)[C@@H](C)O)[C@@H](C)O)C(=O)N[C@@H](CCCc2cc(C)cc(C)c2)C(N)=O)cc1 [P12] (Desaminohistidyl-G[Ala(1H-tetrazol-5-yl)]GT[αMePhe(2-F)]TSD[Bip(2'-Et,4'-O(CH2)4NH2)][Nva(5-(3,5-Me2Ph))]-NH2) | 1.2 | 76.4 | 46.5 | 116.2 | 1.2 | > 200 |  | EC50 (HEK293/CRE-Luc cells [2]): > 200 nM; HEK293/CRE-LUC/hGLP1R Relative Potency (% P8 EC50) (human GLP1R [3]): 46.5%; HEK293/CRE-LUC/hGLP1R S/N (human GLP1R [3]): 76.4
CC[C@H](C)[C@H](NC(=O)[C@H](Cc1ccccc1)NC(=O)[C@H](CCC(=O)O)NC(=O)[C@H](CCCCN)NC(=O)[C@H](C)NC(=O)[C@H](C)NC(=O)[C@H](CCC(N)=O)NC(=O)CNC(=O)[C@H](CCC(=O)O)NC(=O)[C@H](CC(C)C)NC(=O)[C@H](Cc1ccc(O)cc1)NC(=O)[C@H](CO)NC(=O)[C@H](CO)NC(=O)[C@@H](NC(=O)[C@H](CC(=O)O)NC(=O)[C@H](CO)NC(=O)[C@@H](NC(=O)[C@H](Cc1ccccc1)NC(=O)[C@@H](NC(=O)CNC(=O)[C@H](CCC(=O)O)NC(=O)[C@H](C)NC(=O)[C@@H](N)Cc1c[nH]cn1)[C@@H](C)O)[C@@H](C)O)C(C)C)C(=O)N[C@@H](C)C(=O)N[C@@H](Cc1c[nH]c2ccccc12)C(=O)N[C@@H](CC(C)C)C(=O)N[C@H](C(=O)N[C@@H](CCCCN)C(=O)NCC(=O)N[C@@H](CCCNC(=N)N)C(N)=O)C(C)C [GLP1, glucagon-like peptide 1, reference compound] | 1.3 |  |  |  | 1.3 |  |  | HEK293/CRE-Luc S/N (HEK293/CRE-Luc cells [2]; Table 12): 1.4; S/N (HEK293/CRE-Luc cells [5]; ATDCs and references (Table 27)): 1.4
CCc1cc(OCCCCn2cc(COCCOCCOCCOCCOCCOCCOCCOCCN)nn2)ccc1-c1ccc(C[C@H](NC(=O)[C@H](CC(=O)O)NC(=O)[C@H](CO)NC(=O)[C@@H](NC(=O)[C@](C)(Cc2ccccc2F)NC(=O)[C@@H](NC(=O)CNC(=O)[C@H](Cc2nn[nH]n2)NC(=O)C(C)(C)NC(=O)[C@@H](N)Cc2ccc(O)cc2)[C@@H](C)O)[C@@H](C)O)C(=O)N[C@@H](CCCc2cc(C)cc(C)c2)C(N)=O)cc1 [LP29, NH2-PEG8-triazole-P19] |  |  |  |  |  |  |  | half-life at 2 µM ([1]; pH 7.4, tested time C (3 days)): > 7.23 days
CCc1cc(OCCCCn2cc(COCCOCCOCCOCCNC(=O)OC[C@@H]3[C@@H]4CCc5[nH]nnc5CC[C@@H]43)nn2)ccc1-c1ccc(C[C@H](NC(=O)[C@H](CC(=O)O)NC(=O)[C@H](CO)NC(=O)[C@@H](NC(=O)[C@](C)(Cc2ccccc2F)NC(=O)[C@@H](NC(=O)CNC(=O)[C@H](Cc2nn[nH]n2)NC(=O)C(C)(C)C(=O)NCCc2cnc[nH]2)[C@@H](C)O)[C@@H](C)O)C(=O)N[C@@H](CCCc2cc(C)cc(C)c2)C(N)=O)cc1 [LP24, triazole-BCN-PEG4-triazole-P8] |  |  |  |  |  |  |  | half-life at 2 µM ([1]; pH 7.4, tested time D (7 days)): > 16.9 days
CCc1cc(OCCCCN)ccc1-c1ccc(C[C@H](NC(=O)[C@H](CC(=O)O)NC(=O)[C@H](CO)NC(=O)[C@@H](NC(=O)[C@](C)(Cc2ccccc2F)NC(=O)[C@@H](NC(=O)CNC(=O)[C@H](Cc2nn[nH]n2)NC(=O)[C@@]2(C)CCN(CCc3cnc[nH]3)C2=O)[C@@H](C)O)[C@@H](C)O)C(=O)N[C@@H](CCCc2cc(C)cc(C)c2)C(N)=O)cc1 [P15-R] | 1.1 |  |  |  |  |  | 0.117 | EC50 (HEK293/CRE-Luc cells [2]): > 200 nM; EC50 (human GLP1R [3]): 0.0132 nM; HEK293/CRE-LUC/hGLP1R Relative Potency (% P8 EC50) (human GLP1R [3]): 40.3%; HEK293/CRE-LUC/hGLP1R S/N (human GLP1R [3]): 67.8
CCc1cc(OCCCCN)ccc1-c1ccc(C[C@H](NC(=O)[C@H](CC(=O)O)NC(=O)[C@H](CO)NC(=O)[C@@H](NC(=O)[C@](C)(Cc2ccccc2F)NC(=O)[C@@H](NC(=O)CNC(=O)[C@H](Cc2nn[nH]n2)NC(=O)C(C)(C)C(=O)NCCc2cnc[nH]2)[C@@H](C)O)[C@@H](C)O)C(=O)Nc2ccccc2)cc1 [P22] |  | 48.9 | 1.2 | 74.4 | 1.5 | > 200 | 0.603 | EC50 (human GLP1R [4]): 0.44 nM
CCc1cc(OCCCCN)ccc1-c1ccc(C[C@H](NC(=O)[C@H](CC(=O)O)NC(=O)[C@H](CO)NC(=O)[C@@H](NC(=O)[C@](C)(Cc2ccccc2F)NC(=O)[C@@H](NC(=O)CNC(=O)[C@H](Cc2nn[nH]n2)NC(=O)[C@H](C)NC(=O)[C@@H](N)Cc2ccc(O)cc2)[C@@H](C)O)[C@@H](C)O)C(=O)N[C@@H](CCCc2cc(C)cc(C)c2)C(N)=O)cc1 [P18] |  | 68.2 | 8.7 | 103.6 | 1.4 | > 200 | 0.37 | EC50 (human GLP1R [4]): 0.0613 nM
